Assay results as given in PMC5218480 (PLoS ONE, 2017).

Tested on: MV-4-11 cells
Assay: Gene expression microarray analysis (Affymetrix PrimeView) and GSEA
Format: cell-based, human
Design: RFU PODN (11730768_x_at) / Fold change /veh PODN (11730768_x_at) / RFU LINC00158 (11744669_a_at) / Fold change /veh LINC00158 (11744669_a_at) / RFU DUSP10 (11751237_a_at) / Fold change /veh DUSP10 (11751237_a_at) / RFU ID3 (11757404_x_at) / Fold change /veh ID3 (11757404_x_at) / RFU PLEKHG5 (11737974_s_at) / Fold change /veh PLEKHG5 (11737974_s_at) / RFU LRRC4B (11730491_at) / Fold change /veh LRRC4B (11730491_at) / RFU GIMAP4 (11747438_a_at) / Fold change /veh GIMAP4 (11747438_a_at) / RFU KRT8 (11758183_x_at) / Fold change /veh KRT8 (11758183_x_at) / RFU CNN1 (11734310_a_at) / Fold change /veh CNN1 (11734310_a_at) / RFU VPS37D (11726825_at) / Fold change /veh VPS37D (11726825_at) / RFU C10orf10 (11716522_x_at) / Fold change /veh C10orf10 (11716522_x_at) / RFU KIR2DL2 /// KIR2DL4 /// KIR2DL5A /// KIR2DL5B /// KIR2DS1 /// KIR2DS2 /// KIR2DS3 /// KIR2DS4 /// KIR3DL3 /// KIR3DL3 /// KIR3DS1 (11738374_at) / Fold change /veh KIR2DL2 /// KIR2DL4 /// KIR2DL5A /// KIR2DL5B /// KIR2DS1 /// KIR2DS2 /// KIR2DS3 /// KIR2DS4 /// KIR3DL3 /// KIR3DL3 /// KIR3DS1 (11738374_at) / RFU C1QL1 (11718748_at) / Fold change /veh C1QL1 (11718748_at) / RFU TMPRSS4 (11747572_a_at) / Fold change /veh TMPRSS4 (11747572_a_at) / RFU HAMP (11756126_x_at) / Fold change /veh HAMP (11756126_x_at) / RFU RNFT2 (11725882_a_at) / Fold change /veh RNFT2 (11725882_a_at) / RFU NR4A2 (11747474_a_at) / Fold change /veh NR4A2 (11747474_a_at) / RFU ABCC12 (11746883_a_at) / Fold change /veh ABCC12 (11746883_a_at) / RFU TMEM136 (11760407_x_at) / Fold change /veh TMEM136 (11760407_x_at) / RFU CLDN22 /// WWC2 (11732394_at) / Fold change /veh CLDN22 /// WWC2 (11732394_at) / RFU HLA-DPB1 (11760878_x_at) / Fold change /veh HLA-DPB1 (11760878_x_at) / RFU SPINT1 (11716480_a_at) / Fold change /veh SPINT1 (11716480_a_at) / RFU GAP43 (11754022_s_at) / Fold change /veh GAP43 (11754022_s_at) / RFU A4GNT (11735810_at) / Fold change /veh A4GNT (11735810_at) / RFU PRB3 (11715151_x_at) / Fold change /veh PRB3 (11715151_x_at) / RFU TUBB4B (11761932_at) / Fold change /veh TUBB4B (11761932_at) / RFU CAPN14 (11732068_a_at) / Fold change /veh CAPN14 (11732068_a_at) / RFU TMCC2 (11721928_a_at) / Fold change /veh TMCC2 (11721928_a_at) / RFU IRGQ (11745062_a_at) / Fold change /veh IRGQ (11745062_a_at) / RFU FAM174B (11720279_a_at) / Fold change /veh FAM174B (11720279_a_at) / RFU TMPRSS4 (11748680_a_at) / Fold change /veh TMPRSS4 (11748680_a_at) / RFU FAM212B (11763350_a_at) / Fold change /veh FAM212B (11763350_a_at) / RFU PLEKHG5 (11743358_a_at) / Fold change /veh PLEKHG5 (11743358_a_at) / RFU ZSCAN30 (11745921_a_at) / Fold change /veh ZSCAN30 (11745921_a_at) / RFU CMKLR1 (11741424_a_at) / Fold change /veh CMKLR1 (11741424_a_at) / RFU LOC101060620 /// MAPK8IP1 (11723275_at) / Fold change /veh LOC101060620 /// MAPK8IP1 (11723275_at) / RFU SPTSSB (11747773_x_at) / Fold change /veh SPTSSB (11747773_x_at) / RFU PRSS12 (11739890_at) / Fold change /veh PRSS12 (11739890_at) / RFU BIN1 (11741810_x_at) / Fold change /veh BIN1 (11741810_x_at) / RFU WNT11 (11732464_a_at) / Fold change /veh WNT11 (11732464_a_at) / RFU C10orf10 (11716521_a_at) / Fold change /veh C10orf10 (11716521_a_at) / RFU C5orf56 (11738089_at) / Fold change /veh C5orf56 (11738089_at) / RFU CYB561 (11721691_x_at) / Fold change /veh CYB561 (11721691_x_at) / RFU ANKRD19P (11752326_a_at) / Fold change /veh ANKRD19P (11752326_a_at) / RFU OR2T12 /// OR2T33 /// OR2T8 (11738714_s_at) / Fold change /veh OR2T12 /// OR2T33 /// OR2T8 (11738714_s_at) / RFU VCAN (11748164_a_at) / Fold change /veh VCAN (11748164_a_at) / RFU JSRP1 (11732532_at) / Fold change /veh JSRP1 (11732532_at) / RFU KRTAP10-11 (11738290_x_at) / Fold change /veh KRTAP10-11 (11738290_x_at) / RFU MYO3A (11730013_a_at) / Fold change /veh MYO3A (11730013_a_at) / RFU EBF3 (11725865_a_at) / Fold change /veh EBF3 (11725865_a_at) / RFU CAMK2N1 (11719241_x_at) / Fold change /veh CAMK2N1 (11719241_x_at) / RFU C5orf56 (11738088_a_at) / Fold change /veh C5orf56 (11738088_a_at) / RFU OLFML3 (11715873_a_at) / Fold change /veh OLFML3 (11715873_a_at) / RFU LOC100653217 /// NTM (11731650_a_at) / Fold change /veh LOC100653217 /// NTM (11731650_a_at) / RFU MAPK11 (11762145_a_at) / Fold change /veh MAPK11 (11762145_a_at) / RFU FIZ1 (11724087_x_at) / Fold change /veh FIZ1 (11724087_x_at) / RFU OASL (11726364_x_at) / Fold change /veh OASL (11726364_x_at) / RFU SOX15 (11748057_x_at) / Fold change /veh SOX15 (11748057_x_at) / RFU CD79A (11719716_a_at) / Fold change /veh CD79A (11719716_a_at) / RFU HIST1H1D (11736915_at) / Fold change /veh HIST1H1D (11736915_at) / RFU CASKIN2 (11723855_a_at) / Fold change /veh CASKIN2 (11723855_a_at) / RFU LOC730098 (11760151_x_at) / Fold change /veh LOC730098 (11760151_x_at) / RFU OR4N2 (11742367_at) / Fold change /veh OR4N2 (11742367_at) / RFU PRRT2 (11749266_a_at) / Fold change /veh PRRT2 (11749266_a_at) / RFU SNX32 (11753110_a_at) / Fold change /veh SNX32 (11753110_a_at) / RFU CDHR5 (11726645_a_at) / Fold change /veh CDHR5 (11726645_a_at) / RFU RCAN1 (11760418_a_at) / Fold change /veh RCAN1 (11760418_a_at) / RFU FAM167A (11723789_a_at) / Fold change /veh FAM167A (11723789_a_at) / RFU FAM26E (11764081_at) / Fold change /veh FAM26E (11764081_at) / RFU ISYNA1 (11749810_s_at) / Fold change /veh ISYNA1 (11749810_s_at) / RFU ACY1 (11761880_at) / Fold change /veh ACY1 (11761880_at) / RFU 11764098_at / Fold change /veh 11764098_at / RFU SAMD14 (11745864_x_at) / Fold change /veh SAMD14 (11745864_x_at) / RFU NPB (11741838_a_at) / Fold change /veh NPB (11741838_a_at) / RFU TMPRSS6 (11731388_a_at) / Fold change /veh TMPRSS6 (11731388_a_at) / RFU KRTAP10-2 (11738614_at) / Fold change /veh KRTAP10-2 (11738614_at) / RFU ARHGAP8 /// PRR5-ARHGAP8 (11727945_x_at) / Fold change /veh ARHGAP8 /// PRR5-ARHGAP8 (11727945_x_at) / RFU KRTAP5-7 /// NADSYN1 (11734609_at) / Fold change /veh KRTAP5-7 /// NADSYN1 (11734609_at) / RFU RASL12 (11751679_a_at) / Fold change /veh RASL12 (11751679_a_at) / RFU CDKN2B (11736163_a_at) / Fold change /veh CDKN2B (11736163_a_at) / RFU PRF1 (11729649_at) / Fold change /veh PRF1 (11729649_at) / RFU, ZNF638 /// ZNF638-IT1 / Fold change vs veh, ZNF638 /// ZNF638-IT1 / RFU, PANK3 / Fold change vs veh, PANK3 / RFU, SH3YL1 / Fold change vs veh, SH3YL1 / RFU, ZEB2 / Fold change vs veh, ZEB2 / RFU, NRIP1 / Fold change vs veh, NRIP1 / RFU, PTTG1IP / Fold change vs veh, PTTG1IP / RFU, CAPN2 / Fold change vs veh, CAPN2 / RFU, MED14 / Fold change vs veh, MED14 / RFU, SNORA58 / Fold change vs veh, SNORA58 / RFU, C1orf63 / Fold change vs veh, C1orf63 / RFU, LRRFIP1 / Fold change vs veh, LRRFIP1 / RFU, NDUFAF7 / Fold change vs veh, NDUFAF7 / RFU, SLC12A2 / Fold change vs veh, SLC12A2 / RFU, IBTK / Fold change vs veh, IBTK / RFU, ESF1 / Fold change vs veh, ESF1 / Fold change vs veh, TMEM50B / RFU, TAOK1 / Fold change vs veh, TAOK1 / RFU, ACBD3 / Fold change vs veh, ACBD3 / RFU, TMA16 / Fold change vs veh, TMA16 / RFU, RWDD3 / Fold change vs veh, RWDD3 / RFU, BCAT1 / Fold change vs veh, BCAT1 / RFU, EDEM3 / Fold change vs veh, EDEM3 / RFU, TMEM33 / Fold change vs veh, TMEM33 / RFU, WDR75 / Fold change vs veh, WDR75 / RFU, AHCTF1 / Fold change vs veh, AHCTF1 / RFU, TFRC / Fold change vs veh, TFRC / RFU, ZDHHC17 / Fold change vs veh, ZDHHC17 / RFU, NOM1 / Fold change vs veh, NOM1 / RFU, ARL8B / Fold change vs veh, ARL8B / RFU, ZBTB11 / Fold change vs veh, ZBTB11 / RFU, TAMM41 / Fold change vs veh, TAMM41 / RFU, KIAA1704 /// LOC100996395 / Fold change vs veh, KIAA1704 /// LOC100996395 / RFU, ING1 / Fold change vs veh, ING1 / RFU, TRMT61B / Fold change vs veh, TRMT61B / RFU, FUBP3 / Fold change vs veh, FUBP3 / RFU, TP53 / Fold change vs veh, TP53 / RFU, TNKS2 / Fold change vs veh, TNKS2 / RFU, ZFP14 / Fold change vs veh, ZFP14 / RFU, ACTR2 / Fold change vs veh, ACTR2 / RFU, PPP3R1 / Fold change vs veh, PPP3R1 / RFU, PIK3R1 / Fold change vs veh, PIK3R1 / RFU, HNRNPA1 / Fold change vs veh, HNRNPA1 / RFU, RNF170 / Fold change vs veh, RNF170 / RFU, ZNF28 / Fold change vs veh, ZNF28 / RFU, RNGTT / Fold change vs veh, RNGTT / RFU, OGT / Fold change vs veh, OGT / RFU, BRD1 / Fold change vs veh, BRD1 / RFU, MARS / Fold change vs veh, MARS / RFU, ZNF655 / Fold change vs veh, ZNF655 / RFU, FAHD1 / Fold change vs veh, FAHD1 / RFU, BDP1 / Fold change vs veh, BDP1 / RFU, LRRCC1 / Fold change vs veh, LRRCC1 / RFU, ARID1A / Fold change vs veh, ARID1A / RFU, ZNF146 / Fold change vs veh, ZNF146 / RFU, ZNF330 / Fold change vs veh, ZNF330 / RFU, GPN3 / Fold change vs veh, GPN3 / RFU, C9orf123 / Fold change vs veh, C9orf123 / RFU, N4BP2L2 / Fold change vs veh, N4BP2L2 / RFU, ARFIP1 / Fold change vs veh, ARFIP1 / RFU, FAM179B / Fold change vs veh, FAM179B / RFU, BCL10 / Fold change vs veh, BCL10 / RFU, UHRF1BP1L / Fold change vs veh, UHRF1BP1L / RFU, BET1 / Fold change vs veh, BET1 / RFU, CNOT2 / Fold change vs veh, CNOT2 / RFU, ZNF268 / Fold change vs veh, ZNF268 / Fold change vs veh, ZNF507 / RFU, DGCR2 / Fold change vs veh, DGCR2 / RFU, WDSUB1 / Fold change vs veh, WDSUB1 / Fold change vs veh, HSP90B1 /// MIR3652 / RFU, ADSS / Fold change vs veh, ADSS / RFU, GK / Fold change vs veh, GK / RFU, ZNF148 / Fold change vs veh, ZNF148 / RFU, TAF9 / Fold change vs veh, TAF9 / RFU, SLC1A5 / Fold change vs veh, SLC1A5 / RFU, SLMO2 / Fold change vs veh, SLMO2 / RFU, ABCC4 / Fold change vs veh, ABCC4 / RFU, LOC101060439 /// RAP1B / Fold change vs veh, LOC101060439 /// RAP1B / RFU, RFX7 / Fold change vs veh, RFX7 / RFU, GTPBP10 / Fold change vs veh, GTPBP10 / RFU, CNEP1R1 / Fold change vs veh, CNEP1R1 / RFU, BIVM-ERCC5 /// ERCC5 / Fold change vs veh, BIVM-ERCC5 /// ERCC5 / RFU, ILF3 / Fold change vs veh, ILF3 / RFU 11762660_at / Fold change /veh 11762660_at / RFU VCAN (11757783_s_at) / Fold change /veh VCAN (11757783_s_at) / RFU DDX43 (11728927_at) / Fold change /veh DDX43 (11728927_at) / RFU KRT8 (11758188_x_at) / Fold change /veh KRT8 (11758188_x_at) / RFU NKD1 (11759106_at) / Fold change /veh NKD1 (11759106_at) / RFU SRD5A1 (11742802_a_at) / Fold change /veh SRD5A1 (11742802_a_at) / RFU TPSAB1 /// TPSB2 (11721975_s_at) / Fold change /veh TPSAB1 /// TPSB2 (11721975_s_at) / RFU GSTM3 (11746129_a_at) / Fold change /veh GSTM3 (11746129_a_at) / RFU IL23R (11737362_x_at) / Fold change /veh IL23R (11737362_x_at) / RFU TMEM51 (11727254_a_at) / Fold change /veh TMEM51 (11727254_a_at) / RFU PIWIL2 (11732686_x_at) / Fold change /veh PIWIL2 (11732686_x_at) / RFU ORM1 (11744905_x_at) / Fold change /veh ORM1 (11744905_x_at) / RFU CCDC152 (11743942_at) / Fold change /veh CCDC152 (11743942_at) / RFU ECM1 (11717891_a_at) / Fold change /veh ECM1 (11717891_a_at) / RFU IL23R (11748794_a_at) / Fold change /veh IL23R (11748794_a_at) / RFU TNFAIP8L3 (11732012_x_at) / Fold change /veh TNFAIP8L3 (11732012_x_at) / RFU MBOAT4 (11741988_at) / Fold change /veh MBOAT4 (11741988_at) / RFU 11764193_at / Fold change /veh 11764193_at / RFU TMEM53 (11763286_at) / Fold change /veh TMEM53 (11763286_at) / RFU MAGEB2 (11727129_at) / Fold change /veh MAGEB2 (11727129_at) / RFU TMEM200A (11744735_a_at) / Fold change /veh TMEM200A (11744735_a_at) / RFU CCDC152 (11751479_a_at) / Fold change /veh CCDC152 (11751479_a_at) / RFU FAM211A (11726209_a_at) / Fold change /veh FAM211A (11726209_a_at) / RFU RGS16 (11746705_a_at) / Fold change /veh RGS16 (11746705_a_at) / RFU VCAN (11755009_s_at) / Fold change /veh VCAN (11755009_s_at) / RFU RHOB (11743442_s_at) / Fold change /veh RHOB (11743442_s_at) / RFU RGS16 (11720943_a_at) / Fold change /veh RGS16 (11720943_a_at) / RFU RGS16 (11720944_at) / Fold change /veh RGS16 (11720944_at) / RFU, VPS4B / Fold change vs veh, VPS4B / RFU, CREB1 / Fold change vs veh, CREB1 / RFU, DNAJC13 / Fold change vs veh, DNAJC13 / RFU, GNAQ / Fold change vs veh, GNAQ / RFU, CDK5R1 / Fold change vs veh, CDK5R1 / RFU, ZRANB3 / Fold change vs veh, ZRANB3 / RFU, CUL4A / Fold change vs veh, CUL4A / RFU, CCNY / Fold change vs veh, CCNY / RFU, UFL1 / Fold change vs veh, UFL1 / RFU, COG3 / Fold change vs veh, COG3 / RFU, DIAPH2 / Fold change vs veh, DIAPH2 / RFU, SKA2 / Fold change vs veh, SKA2 / RFU, AFF3 / Fold change vs veh, AFF3 / RFU, LMF1 / Fold change vs veh, LMF1 / RFU, IPO11 / Fold change vs veh, IPO11 / RFU, DFFB / Fold change vs veh, DFFB / RFU, FOXP1 / Fold change vs veh, FOXP1 / RFU, CARD8 / Fold change vs veh, CARD8 / RFU, STRN3 / Fold change vs veh, STRN3 / RFU, ADK / Fold change vs veh, ADK / RFU, RASSF2 / Fold change vs veh, RASSF2 / RFU, WIPF1 / Fold change vs veh, WIPF1 / RFU, LARP1B / Fold change vs veh, LARP1B / RFU, RASA1 / Fold change vs veh, RASA1 / RFU, RB1 / Fold change vs veh, RB1 / RFU, PPFIA1 / Fold change vs veh, PPFIA1 / RFU, MAT2A / Fold change vs veh, MAT2A / RFU, CCT5 / Fold change vs veh, CCT5 / RFU, WDR92 / Fold change vs veh, WDR92 / RFU, CUX1 / Fold change vs veh, CUX1 / RFU, TTC7A / Fold change vs veh, TTC7A / RFU, TMEM135 / Fold change vs veh, TMEM135 / RFU, DEPTOR / Fold change vs veh, DEPTOR / RFU, CPM / Fold change vs veh, CPM / RFU, DNAJB6 / Fold change vs veh, DNAJB6 / RFU, CACNA2D3 / Fold change vs veh, CACNA2D3 / RFU, DTX4 / Fold change vs veh, DTX4 / RFU, TFCP2 / Fold change vs veh, TFCP2 / RFU, GMCL1 /// GMCL1P1 / Fold change vs veh, GMCL1 /// GMCL1P1 / RFU, AEBP2 / Fold change vs veh, AEBP2 / RFU, SNHG1 /// SNORD22 /// SNORD25 /// SNORD26 /// SNORD27 /// SNORD28 /// SNORD29 /// SNORD31 / Fold change vs veh, SNHG1 /// SNORD22 /// SNORD25 /// SNORD26 /// SNORD27 /// SNORD28 /// SNORD29 /// SNORD31 / Fold change (Aza/veh), C12orf56 (ProbeSet 11735607_a_at) / Fold change (ACY-1035/veh), C12orf56 (ProbeSet 11735607_a_at) / Fold change (Aza/veh), FGFR1OP (ProbeSet 11751329_s_at) / Fold change (ACY-1035/veh), FGFR1OP (ProbeSet 11751329_s_at) / Fold change (Aza/veh), VPS36 (ProbeSet 11739960_a_at) / Fold change (ACY-1035/veh), VPS36 (ProbeSet 11739960_a_at) / RFU SYPL1 (11715823_x_at) / Fold change /veh SYPL1 (11715823_x_at) / RFU IGFBP7 (11715501_s_at) / Fold change /veh IGFBP7 (11715501_s_at) / RFU REEP3 (11722064_at) / Fold change /veh REEP3 (11722064_at) / RFU IGLL1 (11728026_x_at) / Fold change /veh IGLL1 (11728026_x_at): dose or concentration left out as unconfirmed
Settings: ProbeSet 11748335_a_at; LIST B

In the case of `Nc1ccc(-c2cccs2)cc1NC(=O)c1ccc2c(c1)cc(C1CC1)n2CCN1CCOCC1` [ACY-1035], the “RFU, SLMO2” value is reported as 145.26 RFU.
